Assay [1] has as its system phospho-akt (Thr308) in PC-3 cells. Description: Inhibition of phospho-akt (Thr308) in PC-3 cells, MSD phospho-akt 308 ELISA kit. Format: cell-based. Particulars: Homo sapiens. As for the experimental part:
PC-3 cells were harvested by trypsin and counted. Cells were plated in coated 96-well flat bottom plates (plate 15,000 cells/well in 100 ul growth media (10% FBS, 1× pen-strep) an place in an incubator overnight.
Subject inhibitors were stocked at 50 mM, then diluted to 30 mM (4.8 μl cpd plus […] DMSO) in 100% DMSO. Three-fold dilutions were performed from 30 mM stock. (4 μl into 8 ul 100% DMSO). Aliquots of 1.0 μl of inhibitor solution were transferred into SF Medium (using deep well block).
Control wells were prepared as follows. For DMSO high controls, 1.0 μl of 100% DMSO was added into 1.0 ml SF. For low controls for PC-3 cells, 5 μM of Wortmannin (10 μl of 1 mM Wortmannin stock was added into 2 ml SF Medium. The supernatant media was removed and the plate was blotted. 100 μl of controls/media or compound/media were added to cells and placed in incubator for 2 hours. The supernatant media was removed and the plate was blotted. 55 μl of the MSD complete lysis buffer was added (10 mls Tris Lysis buffer, 200 ul protease inhibitor, 100 ul phosphatase inhibitor 1, and 100 ul phosphatase inhibitor II). The plate was placed on a plate shaker for 60 mins at 4 deg.
MSD plates were blocked for 1 hour by adding 150 μl of Blocking Solution (3% BSA) to each well. The MSD plates were washed 4× with TBST, and 50 μl lysates were transferred to MSD plate and place on plate shaker shake at 4 degrees O/N, light shaking (speed 3.5). The plate was washed 4× with TBST.
25 μl of Ab detection solution was added to each well. The plate was sealed and incubated 1 hr RT, light shaking (speed 3.5). The plate was washed 4 times with TBST. 150 μl of Read Buffer was added (5 mls 4×MSD Read Buffer+15 mls water). Finally the plate was read immediately on the MSD plate reader.
(In general: In an ELISA, binding on a coated surface is turned into a signal by an enzyme label.)

The target of assay [2] is PDK1 (Homo sapiens (Human), UniProt O15530). Put plainly: PDK1 kinase assay (coupled PDK1/AKT/FAM-crosstide assay, IMAP fluorescence polarization). Format: biochemical. Here is the method:
A PDK1 kinase assay was performed as follows. PDK1 (amino acids 51-359) and AKT2 (amino acids 140-467 fused to PIFtide, amino acids […]) were expressed as N-terminally tagged GST fusion proteins in insect cells and purified to homogeneity. Enzyme activity was determined in a coupled PDK1/AKT/FAM-crosstide assay and phosphorylation of FAM-crosstide was determined by standard IMAP protocol (Molecular Devices). For inhibition studies, compounds were titrated 4-fold in DMSO and diluted 40-fold into assay buffer (10 mM Tris HCl pH7.2; 10 mM MgCl2; 0.01% Triton X-100; 1 mM DTT) containing PDK1, AKT2, and FAM-crosstide (final concentrations: 0.75 nM PDK1, 10 nM unphosphorylated AKT2, and 100 nM crosstide substrate). The kinase reaction was initiated by adding ATP to a final concentration of 40 μM of PDK1 and incubated at 25° C. for 30 min. To detect assay product, the kinase reaction was combined with Progressive Binding Solution (1:600 Progressive Binding Reagent, 50% Buffer A, 50% Buffer B, Molecular Devices) in a 1:3 ratio. The mixture was incubated for 2 hours at 25° C. and the plate was scanned on an Analyst AD with excitation at 485 nm and emission at 530 nm. The fluorescence polarization value “P” is defined by the equation below. The value “mP” is generated by multiplying the P value for each reaction well by a factor of 1000. The value “ΔmP” for each well is the mP value for that well minus the mP value for the average negative control. P=(Fpar−Fperp)/(Fpar+Fperp) Eq.:
Where “par” is fluorescence intensity parallel to the excitation plane; and “perp” is fluorescence intensity perpendicular to the excitation plane. ΔmP values were plotted as a function of compound concentration and the data were analyzed with a 4-parameter fit using GraphPad Prism software.
Background: Fluorescence polarisation rises when a labelled molecule tumbles more slowly, as on binding a larger partner.

[3] abbreviates: inhibition of P308 Akt in PC-3 cells using MSD, 2 hours, no serum, read-out: EC50.
[4] abbreviates: inhibition of P308 Akt in PC-3 cells, 2 hours, no serum, MSD, read-out: EC50.
The mark [5] stands for this setting: inhibition of phospo-PDK1 in vitro.

Counter-ions that a name gives are not always drawn. Like-named read-outs stand apart in the source and are kept apart here.

Sequence of PDK1 (O15530 51-359): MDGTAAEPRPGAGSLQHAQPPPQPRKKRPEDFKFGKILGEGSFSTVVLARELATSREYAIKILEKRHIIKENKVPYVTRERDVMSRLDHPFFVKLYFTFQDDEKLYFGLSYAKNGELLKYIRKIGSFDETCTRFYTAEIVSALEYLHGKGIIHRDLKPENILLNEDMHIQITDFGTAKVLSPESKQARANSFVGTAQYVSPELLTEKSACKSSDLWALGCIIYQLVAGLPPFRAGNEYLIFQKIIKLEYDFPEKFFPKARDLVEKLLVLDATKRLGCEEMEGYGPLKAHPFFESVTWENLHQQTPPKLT

As usually defined, the EC50 is the concentration at which the effect is half-maximal. One may read the IC50 as the concentration needed to halve the response being measured. Consider `N#Cc1cnc(NCc2ccc(Oc3cc(N)ncn3)cc2)c(C(=O)NCc2ccc(F)c(F)c2)c1` [Example 314, 2-(4-(6-aminopyrimidin-4-yloxy)benzylamino)-5-cyano-N-(3,4-difluorobenzyl)nicotinamide], for which the concentration giving a half-maximal response (EC50) in assay [1] (setting [3]) is more than 10000 nM. This compound gave an IC50 in assay [2] (inhibition of PDK1 in vitro) of 1000 to 5000 nM.
The corresponding values for `N#Cc1cnc(NCc2ccc(-c3cnc4[nH]c(=O)[nH]c4c3)cc2)c(C(=O)NCc2ccc(F)c(F)c2)c1` [Example 356, 5-cyano-N-(3,4-difluorobenzyl)-2-(4-(2-oxo-2,3-dihydro-1H-imidazo[4,5-b]pyridin-6-yl)benzylamino)nicotinamide] are less than 1000 nM and less than 100 nM.
The corresponding values for `N#Cc1cccc(NC(=O)c2cc(C(F)(F)F)cnc2NCc2ccc(-c3cnc4[nH]nc(N)c4c3)cc2)c1` [Example 439, 2-(4-(3-amino-1H-pyrazolo[3,4-b]pyridin-5-yl)benzylamino)-N-(3-cyanophenyl)-5-(trifluoromethyl) nicotinamide] are 1000 to 10000 nM and less than 100 nM.
Consider `COC(=O)C[C@@H](Nc1ncc(C#N)cc1C(=O)N[C@@H](C)c1ccc(F)cc1)c1ccc(-c2c[nH]c3ncnc(N)c23)cc1` [Example 44, (R)-methyl 3-(4-(4-amino-7H-pyrrolo[2,3-d]pyrimidin-5-yl)phenyl)-3-(5-cyano-3-((S)-1-(4-fluorophenyl)ethylcarbamoyl)pyridin-2-ylamino)propanoate], for which the EC50 in assay [1] (PC-3, 2 h) was 1000 to 10000 nM. Besides, the IC50 in assay [2] is less than 100 nM.
For the compound `C[C@H](NC(=O)c1cc(C#N)cnc1N[C@H](C)c1ccc(-c2c[nH]c3ncnc(N)c23)cc1)c1ccc(F)cc1` [Example 432, 2-{(R)-1-[4-(4-Amino-7H-pyrrolo[2,3-d]pyrimidin-5-yl)-phenyl]-ethylamino}-5-cyano-N-[(S)-1-(4-fluoro-phenyl)-ethyl]-nicotinamide], the EC50 in assay [1] (setting [3]) was less than 1000 nM. Besides, the concentration for half-maximal inhibition (IC50) in assay [2] (inhibition of PDK1 in vitro) is less than 100 nM.
Turning to `C[C@H](NC(=O)c1cc(S(C)(=O)=O)cnc1NCc1ccc(-c2ccc3ncnc(N)c3c2)s1)c1ccc(F)c(F)c1`, the EC50 in assay [1] (setting [4]) was less than 1000 nM. Moreover, the concentration for half-maximal inhibition (IC50) in assay [2] (setting [5]) fell in the range of 100 to 1000 nM.
Turning to `NC(=O)c1cnc(NCc2ccc(-c3ccc4ncnc(N)c4c3)s2)c(C(=O)NCc2ccc(F)c(F)c2)c1` [Ex. 7.24.1, 2-({[5-(4-aminoquinazolin-6-yl)thiophen-2-yl]methyl}amino)-N˜3˜-(3,4-difluorobenzyl)pyridine-3,5-dicarboxamide], the EC50 in assay [1] (setting [4]) is less than 1000 nM. The compound also registered a concentration for half-maximal inhibition (IC50) in assay [2] (setting [5]) of less than 100 nM.
Take `Cn1cc(-c2ccc(CNc3ncc(C(F)(F)F)cc3C(=O)NCc3ccc(F)c(F)c3)cc2)c2c(N)ncnc21` [Example 331, 2-(4-(4-amino-7-methyl-7H-pyrrolo[2,3-d]pyrimidin-5-yl)-benzylamino)-N-(3,4-difluorobenzyl)-5-(trifluoromethyl)nicotinamide]: the concentration giving a half-maximal response (EC50) in assay [1] (setting [3]) was less than 1000 nM. This compound gave an IC50 in assay [2] (inhibition of PDK1 in vitro) of less than 100 nM.
Turning to `C[C@H](NC(=O)c1cccnc1NC/C=C/c1ccc2c(c1)NC(=O)/C2=C\c1cnc[nH]1)c1ccc(F)c(F)c1` [Example 15.5, 2-((E)-3-((Z)-3-((1H-imidazol-5-yl)methylene)-2-oxoindolin-6-yl)allylamino)-N-((S)-1-(3,4-difluorophenyl)ethyl)nicotinamide], in assay [1] (setting [4]), the half-maximal effective concentration (EC50) is less than 1000 nM. Besides, the IC50 in assay [2] (setting [5]) is less than 100 nM.
In the case of `C[C@H](NC(=O)c1cccnc1NCc1ccc(-c2ccc3ncnc(N4CC(C)(O)C4)c3c2)s1)c1ccc(F)c(F)c1` [Example 4.37], in assay [1] (setting [4]), the concentration giving a half-maximal response (EC50) was 1000 to 10000 nM. Moreover, in assay [2] (setting [5]), the IC50 was 100 to 1000 nM.
The corresponding values for `CCCS(=O)(=O)Nc1cnc(NCc2ccc(-c3ccc4ncnc(N)c4c3)s2)c(C(=O)NCc2ccc(F)c(F)c2)c1` [Example 8.6.4] are 1000 to 10000 nM and 1000 to 5000 nM.
On to `N#Cc1cnc(NCc2ccc(-c3cnc4[nH]c(=O)[nH]c4c3)cc2)c(C(=O)NCc2ccc(F)c(F)c2)n1` [Example 364, 6-cyano-N-(3,4-difluorobenzyl)-3-(4-(2-oxo-2,3-dihydro-1H-imidazo[4,5-b]pyridin-6-yl)benzylamino)pyrazine-2-carboxamide], for which the EC50 in assay [1] (setting [3]) is less than 1000 nM. Also, in assay [2] (inhibition of PDK1 in vitro), the IC50 is less than 100 nM.
On to `C[C@H](NC(=O)c1cc(C#N)cnc1NCc1ccc(-c2cnc3[nH]cnc3c2)cc1)c1ccc(F)cc1` [Example 135, (S)-2-(4-(3H-imidazo [4,5-b]pyridin-6-yl)benzylamino)-5-cyano-N-(1-(4-fluorophenyl)ethyl)nicotinamide], for which, in assay [1] (setting [3]), the EC50 was less than 1000 nM. Moreover, in assay [2] (inhibition of PDK1 in vitro), the IC50 was less than 100 nM.
Consider `C[C@H](NC(=O)c1cc(C#N)cnc1NCc1ccc(-c2cnc(N)c(C(=O)NCCCS(C)(=O)=O)n2)cc1)c1ccc(F)cc1` [Example 208], for which the EC50 in assay [1] (setting [3]) was less than 1000 nM. The same compound displayed an IC50 in assay [2] (inhibition of PDK1 in vitro) of less than 100 nM.
Turning to `CS(=O)(=O)Nc1cnc(NCc2ccc(-c3ccc4ncnc(N)c4c3)s2)c(C(=O)NCc2ccc(F)c(F)c2)c1` [Ex. 8.6.1, 2-({[5-(4-aminoquinazolin-6-yl)thiophen-2-yl]methyl}amino)-N-(3,4-difluorobenzyl)-5-[(methylsulfonyl)amino]pyridine-3-carboxamide], in assay [1] (setting [4]), the concentration for a half-maximal effect (EC50) is less than 1000 nM. In addition, the IC50 in assay [2] (setting [5]) is less than 100 nM.
For `C[C@H](NC(=O)c1cccnc1NCc1ccc(-c2ccc3ncnc(N)c3c2)s1)c1cc(F)c(F)c(F)c1` [Example 3.63, (S)-2-(((5-(4-aminoquinazolin-6-yl)thiophen-2-yl)methyl)amino)-N-(1-(3,4,5-trifluorophenyl)ethyl) nicotinamide (TFA salt)], in assay [1] (setting [4]), the concentration for a half-maximal effect (EC50) is less than 1000 nM. In addition, the half-maximal inhibitory concentration (IC50) in assay [2] (setting [5]) was less than 100 nM.
Regarding `C[C@H](NC(=O)c1cc(C#N)cnc1NCc1ccc(-c2ccc(N)nc2)cc1)c1ccc(F)c(F)c1` [Example 367, (S)-2-(4-(6-aminopyridin-3-yl)benzylamino)-5-cyano-N-(1-(3,4-difluorophenyl)ethyl) nicotinamide], the EC50 in assay [1] (setting [3]) is less than 1000 nM. Moreover, the concentration for half-maximal inhibition (IC50) in assay [2] (inhibition of PDK1 in vitro) was less than 100 nM.
The corresponding values for `CCCn1cc(-c2ccc(CNc3ncc(C(F)(F)F)cc3C(=O)Nc3ccc(F)cc3)cc2)c2c(N)ncnc21` [Example 429, 2-(4-(4-amino-7-propyl-7H-pyrrolo[2,3-d]pyrimidin-5-yl)benzylamino)-N-(4-fluorophenyl)-5-(trifluoromethyl)nicotinamide] are 1000 to 10000 nM and less than 100 nM.
The corresponding values for `Nc1cccc(-c2nc(-c3ccc(CNc4ncc(C(F)(F)F)cc4C(=O)Nc4ccc(F)cc4)cc3)cnc2N)c1` [Example 239, 2-{4-[5-Amino-6-(3-amino-phenyl)-pyrazin-2-yl]-benzylamino}-N-(4-fluoro-phenyl)-5-trifluoromethyl-nicotinamide] are 1000 to 10000 nM and less than 100 nM.
The corresponding values for `COC(=O)c1ccc(-c2ccc(CNc3ncc(C#N)cc3C(=O)N[C@@H](C)c3ccc(F)cc3)cc2)cn1` [Example 112, (S)-methyl 5-(4-((5-cyano-3-(1-(4-fluorophenyl)ethyl-carbamoyl)pyridin-2-ylamino)methyl)phenyl)picolinate] are more than 10000 nM and more than 5000 nM.
Take `CS(=O)(=O)c1cnc(NCc2ccc(-c3ccc4ncnc(N)c4c3)s2)c(C(=O)NCc2ccc(F)c(F)c2)c1` [Example 8.7.8]: the EC50 in assay [1] (setting [4]) was less than 1000 nM. The compound further returned an IC50 in assay [2] (setting [5]) of 100 to 1000 nM.
The corresponding values for `C[C@H](NC(=O)c1cccnc1NCc1ccc(-c2ccc3nccn3c2)s1)c1ccc(F)cc1` [Example 2.7, (S)-N-(1-(4-fluorophenyl)ethyl)-2-(((5-(imidazo[1,2-a]pyridin-6-yl)thiophen-2-yl)methyl)amino)nicotinamide] are more than 10000 nM and 1000 to 5000 nM.

The values above are taken from US10030016B2 (Sunesis Pharmaceuticals, Inc., priority 2009, dated 2018).
